Our source for the IC50 values is patent publication US9718804B2, “GSK-3 inhibitors” (BRISTOL-MYERS SQUIBB COMPANY, priority 2013, dated 2017).

The target of assay [1] is GSK3β (Homo sapiens, UniProt P49841). Kind of assay: GSK3β kinase assay (Caliper LabChip, fluoresceinated peptide substrate). It is filed as biochemical. In outline: (§1)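 Eleven-point compound titrations (10 mM DMSO stocks) incubated with kinase and fluorescent peptide for 20 h at room temperature before EDTA quench. Substrate-to-product conversion measured by microfluidic mobility shift; IC50 from non-linear fitting.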
Sequence of GSK3β (P49841 whole entry, species assumed): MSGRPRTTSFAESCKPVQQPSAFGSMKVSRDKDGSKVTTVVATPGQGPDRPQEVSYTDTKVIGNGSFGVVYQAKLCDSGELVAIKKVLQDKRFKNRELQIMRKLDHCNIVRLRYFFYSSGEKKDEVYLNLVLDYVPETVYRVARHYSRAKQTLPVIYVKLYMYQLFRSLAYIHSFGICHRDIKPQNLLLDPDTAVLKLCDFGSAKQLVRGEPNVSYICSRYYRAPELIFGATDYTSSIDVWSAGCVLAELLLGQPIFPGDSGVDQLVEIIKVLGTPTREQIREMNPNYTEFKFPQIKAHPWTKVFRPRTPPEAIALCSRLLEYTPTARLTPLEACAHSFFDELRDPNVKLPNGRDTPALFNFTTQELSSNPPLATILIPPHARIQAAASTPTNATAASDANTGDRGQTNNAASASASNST

For assay [2], the target named is GSK3α (Homo sapiens, UniProt P49840). Kind of assay: GSK3α kinase assay (Caliper LabChip, fluoresceinated peptide substrate). The assay is classed as biochemical. In outline:
as §1

The test system of assay [3] is pTau. Kind of assay: pTau assay (no method described). It is filed as cell-based.

pIC50: −log10 of the molar value. Where two headings read alike, the source gives them in different places.

Sequence of GSK3α (P49840 whole entry, species assumed): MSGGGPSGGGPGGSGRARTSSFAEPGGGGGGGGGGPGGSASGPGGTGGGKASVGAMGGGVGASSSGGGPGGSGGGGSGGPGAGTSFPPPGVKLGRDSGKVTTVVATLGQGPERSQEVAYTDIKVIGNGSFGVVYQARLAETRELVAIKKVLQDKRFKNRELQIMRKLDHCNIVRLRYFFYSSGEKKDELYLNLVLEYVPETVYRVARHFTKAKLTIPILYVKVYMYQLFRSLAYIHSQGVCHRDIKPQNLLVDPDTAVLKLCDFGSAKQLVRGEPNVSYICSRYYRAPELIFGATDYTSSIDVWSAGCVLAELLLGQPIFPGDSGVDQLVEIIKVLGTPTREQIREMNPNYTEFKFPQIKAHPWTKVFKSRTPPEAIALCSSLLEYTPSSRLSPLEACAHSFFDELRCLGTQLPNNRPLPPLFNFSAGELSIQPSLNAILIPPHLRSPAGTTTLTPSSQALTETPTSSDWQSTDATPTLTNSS

As usually defined, the pIC50 is the negative decadic logarithm of the IC50, by convention in mol/L. In the case of `O=C(Nc1cnccc1-c1ccccc1)c1ccnc(Nc2cc(C(F)(F)F)ccn2)c1` [Example 3, N-(4-Phenylpyridin-3-yl)-2-((4-(trifluoromethyl)pyridin-2-yl)amino)isonicotinamide], the pIC50 is 8.05 in assay [1] and 6.15 in assay [3]. In assay [2] (second value of the cell, 250 pM enzyme, 20 uM ATP, 20 hours at room temperature, read-out: GSK3β/α (nM): GSK3α IC50), the IC50 was determined as 8.7 nM.
Regarding `O=C(Nc1cnc(F)cc1OCC(F)F)c1ccnc(Nc2ccc(F)cn2)c1` [Example 114, N-(4-(2,2-Difluoroethoxy)-6-fluoropyridin-3-yl)-2-((5-fluoropyridin-2-yl)amino)isonicotinamide], in assay [1] (first value of the cell, 250 pM enzyme, 20 uM ATP, 20 hours at room temperature, read-out: GSK3β/α (nM): GSK3β IC50), the IC50 is 4.4 nM. The pIC50 in assay [2] was 8.82; in assay [3], 6.66.
